“And” between values parts separate entries of the source, which are not always exact repeats. Equal values may be shown once. “Also recorded” adds a separate entry of the source.
How the values were obtained:
[1] = system: other similar kinases; conditions: cited from earlier work
[2] = system: target cell line (bottom layer); assay: Non-contact transwell coculture with sorted senescent cells from irradiated mouse lungs, profibrotic genes in target cell line; type: cell-based; conditions: FIG. 14
Excerpt: FIG. 14. Upregulation of profibrotic genes in target cells by irradiated mouse lung senescent cells. In a noncontact transwell co-culture system, filter separated (19) sorted irradiated red and irradiated non-red mouse lung cells plated on top layer, there is significant induction of Tgf-β. Collagen 1a1 and collagen 3 in target cell line (bottom layer).
To establish that irradiated tdTOMp16+ senescent cells induce profibrotic genes in other cells, a C57BL/6 target cell line and a noncontact transwell co-culture system were used (Ejaz A et al. Stem Cells. 2019, 37, 791-802) (FIG. 14). Using the tdTOMp16+ stromal cell line, significant induction by RIS red cells of collagen 1al, collagen 3, and TGF-β in C57/B6 target cells was observed. The induction was abrogated by the Fgr inhibitor TL02-59 (Mukherjee A et al. Cell Death Discovery, 2021, 7, 349). It was confirmed that the findings in stromal cells also occur in lung. Red and non-red cells from 20 Gy irradiated tdTOMp16 mouse lungs were tested.

[3] = system: target C57BL/6 stromal cells; assay: Non-contact transwell coculture: irradiated senescent tdTOMp16+ stromal cells on top, target cells at bottom, RT-qPCR of profibrotic genes; type: cell-based, mouse
Method: It was also confirmed that the RIS cells showing upregulation of Fgr RNA by heat map also had higher RNA levels. Validation of RNA for p16 and p21, as well as Fgr was carried out (FIG. 5A-FIG. 5C). To establish that irradiated tdTOMp16+ senescent cells induce profibrotic genes, a C57BL/6 target cell line, and a noncontact transwell co-culture system was used (FIG. 6A). Irradiated red cells were compared to 0 Gy or irradiated non-red cells. Sorted red cells, were placed on the top of each well and C57/B6 mouse stromal target cells were plated at the bottom well and observed for two weeks. There was significant induction of collagen 1al and collagen 3 in C57/B6 target cells by RIS red cells (FIG. 6B-FIG. 6C). […] (FIG. 6D).
Transwell experiment: Control and Fgr knockdown stable cell lines were irradiated with 5 Gy by Cesium Gamma Cell dose rate 300 cGy/min. Ten days after radiation, red senescent and non-red non-senescent cells were sorted using MoFlo Astrios Cell Sorter (Beckman Coulter). Senescent and non-senescent cells were plated on the top well of the transwell with a […] pore size (Coster, Cat. No. 3412) and the target C57BL/6 cell line for the evaluation of fibrotic markers was plated at the bottom. 2 weeks later total RNA was extracted from the target C57BL/6 cells and evaluated by qPCR for Collagen 3 (Mm01254476_m1) and TGF-beta (Mm01191861_m1). GAPDH (Mm99999915_g1) was used as the loading control.
Transwell coculture experiments. A Transwell system (0.4-μm pore size, polyester membrane; Corning, Kennebunk, ME) was used (Ejaz A et al. Stem Cells. 2019, 37, 791-802). C57BL/6 mouse bone marrow stromal cells or mouse primary tail fibroblasts were cultured in the bottom surface of a 9-cm^2 culture dishes. Above the adherent layer in the transwell, tdTOMp16+ bone marrow stromal cells (non-irradiated, irradiated non-sorted, irradiated, and sorted senescent tdTOM+, or irradiated non-senescent tdTOM− cells) were cultured in the upper transwell. […] For the stable Fgr shRNA cells, non-target control and Fgr shRNA knockdown cell lines were also irradiated and sorted following the same protocol. Briefly, tdTOMp16+ cells were irradiated and after 10 days of radiation, the cells were FACS sorted for tdTOM+ and tdTOM− cells and 3×10^5 cells added on the top wells in each case. Coculture was maintained for another 10 days. The target cells from the bottom well were lysed, and total RNA was isolated using TRizol (Sigma) reagent following the manufacturer's protocol. cDNA was synthesized, and expression of profibrotic genes (TGF-β1, CTGF, collagens (Col1, Col3), and α-SMA were analyzed using gene-specific TaqMan primers employing quantitative real-time polymerase chain reaction (PCR).
In vitro transwell experiments. Senescent bone marrow derived irradiated (5 Gy, subconfluent cultures held for 10 days) tdTOMp16+ cells were sorted for TOM+ (red) color and placed in Transwell cultures. Two types of transwell experiments were carried out. For induction of fibrosis biomarkers in target cells, senescent cells were placed into the top chamber separated from target mesenchymal stem cells (MSCs) derived from the adherent layer of long term C57Bl/6 mouse bone marrow cultures in the bottom chamber by a 0.4-micron pore size membrane. […] The migration of gfp+ cells through the filter to the bottom compartment was measured by imaging the bottom wells and counting gfp+ cells relative to numbers of senescent TOM+ (red) cells. […]

[4] = system: other similar kinases; assay: Inhibition of other similar kinases; type: biochemical
[5] = system: mouse model of radiation-induced pulmonary fibrosis; assay: Mouse model of radiation-induced pulmonary fibrosis (18 Gy), qPCR and staining of lungs; type: in vivo
Method: (§1) FIG. 47. […] Relative mRNA expression of profibrotic genes (Tgf-β, Ctgf, Collagen 1a1, Collagen 3 and Collagen 4), senescence biomarkers (p16 and p21) and tyrosine kinase Fgr was evaluated by qPCR from one lobe of mouse lungs in control, irradiated and treated with Fgr inhibitor TL02-59 post irradiation. Briefly, Mice were irradiated (18 Gy), and TL02-59 treated (10 mg/kg), 3/week at day 75 for 4 weeks. (n=4-13). Statistics was performed, and individual p values were calculated by unpaired t-test.
FIG. 48. Expression of Fgr and p16 from mouse lungs in control, irradiated, and treated with Fgr inhibitor TL02-59 post irradiation. […] Insets on the right from each group were magnified for clarity.
as §1, with “(n=4-13),” for “(n=4-13).”

[6] = mice; cited from earlier work
[7] = target: Src-family kinase Fgr (Homo sapiens, UniProt P09769); conditions: cited from earlier work
[8] = 10 nM TL02-59, 10 days, FIG. 23

Src-family kinase Fgr, sequence (P09769 whole entry): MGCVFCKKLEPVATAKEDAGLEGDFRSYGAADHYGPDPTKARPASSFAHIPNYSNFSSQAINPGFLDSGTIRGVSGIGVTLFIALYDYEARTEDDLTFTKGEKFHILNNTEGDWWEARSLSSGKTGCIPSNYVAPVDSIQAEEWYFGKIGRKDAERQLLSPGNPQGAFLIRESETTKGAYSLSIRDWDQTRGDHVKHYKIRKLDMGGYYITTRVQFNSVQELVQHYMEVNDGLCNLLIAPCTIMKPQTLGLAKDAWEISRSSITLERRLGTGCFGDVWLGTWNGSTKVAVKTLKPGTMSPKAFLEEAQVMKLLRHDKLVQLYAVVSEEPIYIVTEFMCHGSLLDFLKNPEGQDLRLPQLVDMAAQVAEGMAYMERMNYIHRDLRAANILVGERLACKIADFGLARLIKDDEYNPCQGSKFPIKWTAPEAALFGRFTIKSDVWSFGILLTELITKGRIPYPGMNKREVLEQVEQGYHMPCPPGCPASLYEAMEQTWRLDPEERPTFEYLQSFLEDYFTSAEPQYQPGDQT

CCN1CCN(Cc2ccc(NC(=O)c3ccc(C)c(Oc4ncnc5cc(OC)c(OC)cc45)c3)cc2C(F)(F)F)CC1 [TL02-59]
concentration required for inhibition of other similar kinases [1]: 100 to 1000 nM | induction of Tgf-β, Collagen 1a1 and collagen 3 in target cells by irradiated mouse lung senescent cells ([2]; TL02-59 10 nM): can block senescent cell induction of these genes | induction of collagen 3 by RIS red lung cells ([2]; cells from 20 Gy irradiated tdTOMp16 mouse lungs): reduced the induction of collagen 3 | induction of TGF-beta in target cells by tdTOM+ senescent cells (RT-qPCR) [3, 8]: significantly inhibited induction; also recorded: abrogates the induction of profibrotic genes | induction of collagen 3 in target cells by tdTOM+ senescent cells (RT-qPCR) [3, 8]: significantly inhibited induction; also recorded: abrogates the induction of profibrotic genes | induction of fibrosis biomarkers TGF-β and Collagen 3 in target mesenchymal stem cells ([3]; TL02-59 10 nM, 10 days, FIG. 44): blocked; also recorded: inhibits the induction | induction of collagen 3 in target cells by RIS red cells ([3]; TL02-59 1 μm, transwell, after 2 weeks, FIG. 6D): reduced the induction of collagen 3; also recorded: blocks senescent cell induction | induction of biomarkers of fibrosis (collagen 1a1, collagen 3, TGF-β) in target cells by RIS cells ([3]; transwell co-culture, tdTOMp16+ stromal cell line): abrogates the induction of biomarkers of fibrosis; also recorded: abrogated senescent cell induction of profibrotic genes | fold greater dose required for inhibition of other similar kinases vs Fgr [4]: 10 to 100 fold and 10-to-100 fold | relative mRNA expression of profibrotic genes (Tgf-β, Ctgf, Collagen 1a1, Collagen 3, Collagen 4), senescence biomarkers (p16, p21) and Fgr in lungs (qPCR) ([5]; 18 Gy, TL02-59 10 mg/kg, 3/week at day 75 for 4 weeks, FIG. 47): reduces profibrotic and biomarkers of senescence | expression of Fgr and p16 proteins in mouse lungs (images) ([5]; irradiated, TL02-59 post irradiation, FIG. 48): led to a reduction of both the proteins | oral bioavailability [6]: orally bioavailable | plasma half-life [6]: 6 h | primary target kinase [7]: primary target
